# Values of other authors, collected in PubChem BioAssay AID1259409 (Chemical Carcinogenesis Research Information System (CCRIS), 2018).
# Tested on: rodent chemically induced tumor inhibition, incidence and multiplicity
# Assay: CCRIS tumor inhibitor studies
# Settings: Route [Inhibitor]: ORAL, Species: RAT
compound,measurement,setting,value
C[C@]12CC[C@H](O)CC1=CC[C@@H]1[C@@H]2CC[C@]2(C)C(=O)CC[C@@H]12,"tumour outcome (control, treated, inhibition, significance)","Carcinogen: CYPROTERONE ACETATE [427-51-0], TESTOSTERONE PROPIONATE [57-85-2], N-METHYL-N-NITROSOUREA [684-93-4], Carcinogen: CYPROTERONE ACETATE [427-51-0], TESTOSTERONE PROPIONATE [57-85-2], N-METHYL-N-NITROSOUREA [684-93-4], Dose [Inhibitor]: 1000 MG/KG IN DIET FOR 13 WK BEGINNING 1 WK PRIOR TO MNU DOSE (STUDY DURATION: 14 MONTHS), Strain/Sex: WISTAR-UNILEVER/MALE, Target Tissue: Type of Lesion: PROSTATE AND SEMINAL VESICLE: ADENOCARCINOMA OR CARCINOSARCOMA, Dose [Carcinogen]: 50 MG/KB BW CA BY GAVAGE 1X/D FOR 21 D, 100 MG/KG BW TP SC 1X/D FOR 3 D BEGINNING 1 D POST LAST CA DOSE, 50 MG/KG BW MNU, Dose [Carcinogen]: 50 MG/KB BW CA BY GAVAGE 1X/D FOR 21 D, 100 MG/KG BW TP SC 1X/D FOR 3 D BEGINNING 1 D POST LAST CA DOSE, 50 MG/KG BW MNU, Promoter: TESTOSTERONE (CRYSTALLINE)","27/32 (84%), 27/34 (79%), 6%, not significant"
same,"tumour outcome (control, treated, inhibition, significance)","Carcinogen: CYPROTERONE ACETATE [427-51-0], TESTOSTERONE PROPIONATE [57-85-2], N-METHYL-N-NITROSOUREA [684-93-4], Carcinogen: CYPROTERONE ACETATE [427-51-0], TESTOSTERONE PROPIONATE [57-85-2], N-METHYL-N-NITROSOUREA [684-93-4], Dose [Inhibitor]: 2000 MG/KG IN DIET FOR 13 WK BEGINNING 1 WK PRIOR TO MNU DOSE (STUDY DURATION: 14 MONTHS), Strain/Sex: WISTAR-UNILEVER/MALE, Target Tissue: Type of Lesion: PROSTATE AND SEMINAL VESICLE: ADENOCARCINOMA OR CARCINOSARCOMA, Dose [Carcinogen]: 50 MG/KB BW CA BY GAVAGE 1X/D FOR 21 D, 100 MG/KG BW TP SC 1X/D FOR 3 D BEGINNING 1 D POST LAST CA DOSE, 30 MG/KG BW MNU, Dose [Carcinogen]: 50 MG/KB BW CA BY GAVAGE 1X/D FOR 21 D, 100 MG/KG BW TP SC 1X/D FOR 3 D BEGINNING 1 D POST LAST CA DOSE, 30 MG/KG BW MNU, Promoter: TESTOSTERONE (CRYSTALLINE)","24/30 (80%), 14/29 (48%), 40%, p<0.05"
same,"tumour outcome (control, treated, inhibition, significance)","Carcinogen: CYPROTERONE ACETATE [427-51-0], TESTOSTERONE PROPIONATE [57-85-2], N-METHYL-N-NITROSOUREA [684-93-4], Carcinogen: CYPROTERONE ACETATE [427-51-0], TESTOSTERONE PROPIONATE [57-85-2], N-METHYL-N-NITROSOUREA [684-93-4], Dose [Inhibitor]: 2000 MG/KG IN DIET FOR 13 WK BEGINNING 1 WK PRIOR TO MNU DOSE (STUDY DURATION: 14 MONTHS), Strain/Sex: WISTAR-UNILEVER/MALE, Target Tissue: Type of Lesion: PROSTATE AND SEMINAL VESICLE: ADENOCARCINOMA OR CARCINOSARCOMA, Dose [Carcinogen]: 50 MG/KB BW CA BY GAVAGE 1X/D FOR 21 D, 100 MG/KG BW TP SC 1X/D FOR 3 D BEGINNING 1 D POST LAST CA DOSE, 50 MG/KG BW MNU, Dose [Carcinogen]: 50 MG/KB BW CA BY GAVAGE 1X/D FOR 21 D, 100 MG/KG BW TP SC 1X/D FOR 3 D BEGINNING 1 D POST LAST CA DOSE, 50 MG/KG BW MNU, Promoter: TESTOSTERONE (CRYSTALLINE)","27/32 (84%), 22/32 (69%), 18%, not significant"
same,"tumour outcome (control, treated, inhibition, significance)","Carcinogen: CYPROTERONE ACETATE [427-51-0], TESTOSTERONE PROPIONATE [57-85-2], N-METHYL-N-NITROSOUREA [684-93-4], Carcinogen: CYPROTERONE ACETATE [427-51-0], TESTOSTERONE PROPIONATE [57-85-2], N-METHYL-N-NITROSOUREA [684-93-4], Dose [Inhibitor]: 2000 MG/KG IN DIET FOR 13 WK BEGINNING 20 WK POST MNU DOSE (STUDY DURATION: 14 MONTHS), Strain/Sex: WISTAR-UNILEVER/MALE, Target Tissue: Type of Lesion: PROSTATE AND SEMINAL VESICLE: ADENOCARCINOMA OR CARCINOSARCOMA, Dose [Carcinogen]: 50 MG/KB BW CA BY GAVAGE 1X/D FOR 21 D, 100 MG/KG BW TP SC 1X/D FOR 3 D BEGINNING 1 D POST LAST CA DOSE, 30 MG/KG BW MNU, Dose [Carcinogen]: 50 MG/KB BW CA BY GAVAGE 1X/D FOR 21 D, 100 MG/KG BW TP SC 1X/D FOR 3 D BEGINNING 1 D POST LAST CA DOSE, 30 MG/KG BW MNU, Promoter: TESTOSTERONE (CRYSTALLINE)","24/30 (80%), 15/30 (50%), 38%, p<0.05"
same,"tumour outcome (control, treated, inhibition, significance)","Carcinogen: CYPROTERONE ACETATE [427-51-0], TESTOSTERONE PROPIONATE [57-85-2], N-METHYL-N-NITROSOUREA [684-93-4], Carcinogen: CYPROTERONE ACETATE [427-51-0], TESTOSTERONE PROPIONATE [57-85-2], N-METHYL-N-NITROSOUREA [684-93-4], Dose [Inhibitor]: 2000 MG/KG IN DIET FOR 13 WK BEGINNING 40WK POST MNU DOSE (STUDY DURATION: 14 MONTHS), Strain/Sex: WISTAR-UNILEVER/MALE, Target Tissue: Type of Lesion: PROSTATE AND SEMINAL VESICLE: ADENOCARCINOMA OR CARCINOSARCOMA, Dose [Carcinogen]: 50 MG/KB BW CA BY GAVAGE 1X/D FOR 21 D, 100 MG/KG BW TP SC 1X/D FOR 3 D BEGINNING 1 D POST LAST CA DOSE, 30 MG/KG BW MNU, Dose [Carcinogen]: 50 MG/KB BW CA BY GAVAGE 1X/D FOR 21 D, 100 MG/KG BW TP SC 1X/D FOR 3 D BEGINNING 1 D POST LAST CA DOSE, 30 MG/KG BW MNU, Promoter: TESTOSTERONE (CRYSTALLINE)","24/30 (80%), 18/30 (60%), 25%, not significant"
same,"tumour outcome (control, treated, inhibition, significance)","Carcinogen: DIETHYLNITROSAMINE, 55-18-5, ACETYLAMINOFLUORENE, 53-96-3, Carcinogen: DIETHYLNITROSAMINE, 55-18-5, ACETYLAMINOFLUORENE, 53-96-3, Dose [Inhibitor]: 0, 0.6% IN DIET FOR A MAXIMUM OF 15 WK BEGINNING 15 WK POST INITIATION (STUDY DURATION: 56 WK), Strain/Sex: F344/MALE, Target Tissue: Type of Lesion: LIVER: CARCINOMA, Dose [Carcinogen]: 150 MG/KG DEN ONCE THEN 2 WK LATER 0.02% AAF IN DIET FOR 15 D WITH A PARTIAL HEPATECTOMY MIDWAY THROUGH TREATMENT, Promoter: NONE USED","8/8 (100%), 1/4 (25%), 75%, not calculated"
same,"tumour outcome (control, treated, inhibition, significance)","Carcinogen: DIETHYLNITROSAMINE, 55-18-5, N-METHYL-N-NITROSOUREA, 684-93-5, N-BUTYL-N-(4-HYDROXYBUTYL)NITROSAMINE, 3817-11-6, 1,2-DIM, Carcinogen: DIETHYLNITROSAMINE, 55-18-5, N-METHYL-N-NITROSOUREA, 684-93-5, N-BUTYL-N-(4-HYDROXYBUTYL)NITROSAMINE, 3817-11-6, 1,2-DIM, Dose [Inhibitor]: 0, 0.3% IN DIET FOR 23 WK BEGINNING 1 WK POST CARCINOGEN TREATMENT (STUDY DURATION: 28 WK), Strain/Sex: F344/MALE, Target Tissue: Type of Lesion: LARGE INTESTINE: ADENOMA, Dose [Carcinogen]: 100 MG/KG BW DEN ONCE, 20 MG/KG BW MNU ONCE ON DAYS 6,9, AND 12, 0.05% BBN IN DRINKING WATER FOR FIRST TWO WK, 40 MG/KG, Dose [Carcinogen]: 100 MG/KG BW DEN ONCE, 20 MG/KG BW MNU ONCE ON DAYS 6,9, AND 12, 0.05% BBN IN DRINKING WATER FOR FIRST TWO WK, 40 MG/KG, Promoter: NONE USED","3/20 (15%), 4/20 (20%), -33%, not significant"
